Measured values reported in patent US8197860B2, “Method for enhancing nutrient absorption with astragalosides” (Nuliv Holding Inc., priority 2005, dated 2012).

Legend:
Assay type in all cases: cell-based, human
[1] = system: Caco-2 cell monolayer; test: Arginine absorption assay (transport across Caco-2 cell monolayer); design: key to * (regulatory effect on arginine transport): ↑: the arrows that point up represent the enhancing effect on the arginine transport; settings: for Regulatory effects on the arginine transport across the Caco2 cell monolayer: Table 3 summary; for Transport rate (arginine): 10 mM L-arginine apical
Protocol: (§1) To evaluate the effect of the isolated astragaloside compound on the uptake of nutrient substances across the intestinal lumen, Caco-2 cells were grown on permeable filter as an experimental model. Caco2 cells originate from human colonic adenocarcinoma and spontaneously differentiate into an enterocyte-like phenotype after two weeks. The Caco-2 cell line, derived from a human colorectal carcinoma, has been used as an in vitro model system for studying drug absorption in gastrointestinal tract. These cells form monolayers with well-developed tight-junctions, and have been evaluated in details as an in vitro model to study both transcellular transport of nutrients and drugs in intestinal lumen.
(§2) Caco-2 cells were obtained from the ATCC (American Type Culture Collection). The cells were maintained in Dulbecco's modified Eagle medium (DMEM) containing 4.5 g/L glucose and 25 mM Hepes, supplemented with 10% fetal calf serum, 100 U/mL penicillin G and […]. The medium was changed every second day. The cells were routinely checked for Mycoplasma in monthly intervals. Caco-2 cells were cultured on semi-permeable membranes to differentiate into a highly functionalized epithelial barrier with remarkable morphological and biochemical similarity to the small intestinal columnar epithelium. The Caco-2 cell monolayers could therefore be used to study the membrane transport properties of many compounds. To trypsinize the cells, the culture dish was washed once with phosphate-buffered saline (PBS) followed by adding trypsine-EDTA for 10 minutes. The trypsinized cells were separated and filtered into single cells using a 35-μm strainer cap (Falcon 2235) before being seeded for further experiments.
(§3) In measuring transport of arginine across the Caco-2 cell monolayer, both sides of the transwells were washed with arginine incubation buffer consisting of: 137 mM NaCl, 10 mM Hepes, 0.3 mM NaH2PO4, 0.3 mM K2HPO4, 5.4 mM KCl, 2.8 mM CaCl2, 1 mM MgSO4, 10 mM glucose, adjusted to pH 7.4. Then, the cell layer was preincubated in the incubation buffer at 37° C. for 1 h. The volume of incubation buffer was 0.2 mL and 0.9 mL in the apical and basolateral chambers, respectively. The cells were replaced with fresh incubation medium in both chambers prior to the transport experiment. The transport experiment was initiated by replacing the incubation solution on the apical side with solution containing 10 mM of L-arginine in which 0.125 μCi/mL of L-[^3H]-arginine was included. At designated time intervals, 10 μL-solution samples were removed from the basolateral side and radioactivity of each sample was counted using a microplate liquid scintillation counter (TopCount, Packard NXT). During the experiment, when a 10 μL-solution sample was removed from the basolateral side every time, 10 μL buffer was supplemented to keep the volume constant. The uptake of [^3H]-mannitol was used to correct for nonspecific transport of molecules across the monolayer membrane. Results were expressed as the nanomoles of arginine transport across the Caco-2 cell monolayers with respect to time in minutes (nmol/min).

[2] = system: Caco-2 cell monolayer; test: Tryptophan absorption assay (transport across Caco-2 cell monolayer); design: key to * (regulatory effect on tryptophan transport): ↑: the arrows that point up represent the enhancing effect on the tryptophan transport; settings: for Regulatory effects on the tryptophan transport across the Caco2 cell monolayer: Table 4 summary
Protocol: as §1, §2, §3
The experimental procedures similar to those in Example 2 were used for measuring the uptake of tryptophan molecules across the Caco-2 membrane, except using a tryptophan incubation buffer consisting of 137 mM choline chloride, 10 mM Hepes, 0.6 mM KH2PO4, 5.4 mM KCl, 2.8 mM CaCl2, 1 mM MgSO4, and 10 mM glucose, and having its pH adjusted to 7.4. Results were expressed as the nanomoles of tryptophan transport across the Caco-2 cell monolayers with respect to time in minutes (nmol/min).

[3] = system: Caco2 cells; test: Folate uptake assay; design: key to * (regulatory effect on folate uptake): ↑: the arrows that point up represent the enhancing effect on folate uptake; settings: for * (regulatory effect on folate uptake) / Percentage (folate uptake vs own control) / Uptake rate (folate): compound 0.1 μM; for Uptake rate (folate): 2 days, 5 μM folate, pH 6.0
Protocol: as §1, §2
(§4) Caco-2 cells (5×10^4) were seeded in a 48-well plate and maintained in culture medium (DMEM with 10% FBS, 1% nonessential amino acids, L-glutamine, penicillin G (100 U/mL), streptomycin (10 μg/mL), and amphotericin B (2.5 μg/mL) in a 37° C. incubator for 10 days for the cells to differentiate. The culture medium was changed once every two days. The cells were then washed with PBS before replenishing with the culture medium containing 5% FBS and various astragalosides at the indicated concentrations (0.01, 0.1 and 1 μM) for 48 hours. The Caco2 cells were washed out of remaining glucose with PBS and replaced in the glucose buffer (80 mM NaCl, 100 mM mannitol, 20 mM Tris-HCl, pH 7.4, 3 mM K2HPO4, 1 mM CaCl2, 1 mg/mL BSA) for 1 hour. Glucose uptake was initiated by replacing the glucose buffer with 0.2 ml of glucose buffer containing 2 μCi/mL of ^14C-glucose and unlabeled cold glucose to give a final glucose concentration of 25 mM. Glucose uptake was stopped by removing the glucose buffer and washing with PBS at designated time intervals. The cells were lysed in 0.2 mL of 0.2 N NaOH, and 20 μL of the cell lysate were transferred to the filter-bottomed UniFilter plates (Perkin-Elmer, Wellesley, Mass., USA) and dried in a vacuum oven at 37° C. The bottom of the UniFilter plate was sealed and 25 μL of the counting solution were added into each well. Adhesive plate sealers were used in place of the lids and radioactivity of each sample was counted using the microplate liquid scintillation counter (TopCount, Packard NXT, Packard BioScience Company, Meriden, Conn., USA). The amount of glucose accumulated in the cells was calculated and normalized to protein concentration, and uptake rate was expressed as nanomoles of glucose per minutes per milligram of cell protein (nmol/min/mg). Protein concentration was determined by a standard Bicinchoninic acid (BCA) protein assay. Nonspecific glucose uptake was measured by adding 2 μCi of L-[^14C]-glucose and subtracting from each determination to obtain specific glucose uptake.
The Caco2 cells were subjected to folate uptake test in a manner similar to that described in the glucose uptake assay in Example 1 above. […]

[4] = system: Caco2 cells; test: Glucose uptake assay; design: key to * (regulatory effect on glucose uptake): ↑: the arrows that point up represent the enhancing effect on the glucose uptake; settings: for Regulatory effects on the glucose uptake of the Caco2 cells: Table 2 summary; for Uptake rate (glucose): 48 hours, 25 mM glucose
Protocol: as §1, §2, §4

Row | SMILES | Regulatory effects on the arginine transport across the Caco2 cell monolayer [1] | * (regulatory effect on arginine transport) ([1]; compound 0.01 μM) | Percentage (arginine transport, control = 100) ([1]; compound 0.01 μM) | Transport rate (arginine) ([1]; compound 0.01 μM) | * (regulatory effect on arginine transport) ([1]; compound 0.1 μM) | Percentage (arginine transport, control = 100) ([1]; compound 0.1 μM) | Transport rate (arginine) ([1]; compound 0.1 μM) | Regulatory effects on the tryptophan transport across the Caco2 cell monolayer [2] | * (regulatory effect on tryptophan transport) ([2]; compound 0.01 μM) | Percentage (tryptophan transport, control = 100) ([2]; compound 0.01 μM) | Transport rate (tryptophan) ([2]; compound 0.01 μM) | * (regulatory effect on tryptophan transport) ([2]; compound 0.1 μM) | Percentage (tryptophan transport, control = 100) ([2]; compound 0.1 μM) | Transport rate (tryptophan) ([2]; compound 0.1 μM) | * (regulatory effect on tryptophan transport) ([2]; compound 1 μM) | Percentage (tryptophan transport, control = 100) ([2]; compound 1 μM) | Transport rate (tryptophan) ([2]; compound 1 μM) | * (regulatory effect on folate uptake) [3] | Percentage (folate uptake vs own control) [3] | Uptake rate (folate) [3] | also measured
1 | CC(C)(O)C1CC[C@](C)(C2[C@@H](O)C[C@@]3(C)C4C[C@H](OC5OC(CO)C(O)C(O)C5O)C5C(C)(C)[C@@H](O)CCC56CC46CC[C@]23C)O1 (stereo partly drawn) [AA, cycloastragenol 6-O-β-D-gluco-pyranose] | had regulatory effects on the arginine transport | ↑ | 199.66% | 21.3347 ± 1.7800 nmol/min | ↑ | 170.48% | 18.2169 ± 1.8700 nmol/min | had regulatory effects on the tryptophan transport | ↑ | 133.08% | 11.900 ± 0.6231 nmol/min | ↑ | 156.56% | 14.000 ± 0.6445 nmol/min | ↑ | 135.32% | 12.100 ± 0.5197 nmol/min | ↑ | 158.52% | 84.030 ± 4.9410 pmol/mg/min | * (regulatory effect on arginine transport) ([1]; compound 1 μM): ↑; Percentage (arginine transport, control = 100) ([1]; compound 1 μM): 162.06%; Transport rate (arginine) ([1]; compound 1 μM): 17.3164 ± 1.6150 nmol/min; Arginine transport rate ([1]; concentration from 0.01 μM to 1 μM): increased; Tryptophan transport rate ([2]; concentration from 0.01 μM to 1 mM): increased; Regulatory effects on the glucose uptake of the Caco2 cells [4]: had regulatory effects on the glucose uptake; * (regulatory effect on glucose uptake) ([4]; compound 0.01 μM): ↑; Percentage (glucose uptake, control = 100) ([4]; compound 0.01 μM): 179.69%; Uptake rate (glucose) ([4]; compound 0.01 μM): 11.450 ± 3.2760 nmol/mg/min; * (regulatory effect on glucose uptake) ([4]; compound 0.1 μM): ↑; Percentage (glucose uptake, control = 100) ([4]; compound 0.1 μM): 146.67%; Uptake rate (glucose) ([4]; compound 0.1 μM): 9.3460 ± 2.3210 nmol/mg/min; * (regulatory effect on glucose uptake) ([4]; compound 1 μM): ↑; Percentage (glucose uptake, control = 100) ([4]; compound 1 μM): 145.68%; Uptake rate (glucose) ([4]; compound 1 μM): 9.2830 ± 2.1150 nmol/mg/min
2 | CC(=O)OC1C(O)COC(OC2CCC34CC35CCC3(C)C(C6(C)CCC(C(C)(C)O)O6)C(O)CC3(C)C5CC(OC3OC(CO)C(O)C(O)C3O)C4C2(C)C)C1OC(C)=O (stereo not shown) [AS1, astragaloside I] | had regulatory effects on the arginine transport | ↑ | 151.91% | 16.2324 ± 0.7215 nmol/min | ↑ | 147.21% | 15.7300 ± 1.1250 nmol/min | had regulatory effects on the tryptophan transport | ↑ | 248.49% | 22.220 ± 0.8695 nmol/min | ↑ | 258.67% | 23.130 ± 1.3120 nmol/min | ↑ | 178.93% | 16.000 ± 1.3190 nmol/min | ↑ | 150.00% | 79.710 ± 3.0410 pmol/mg/min | * (regulatory effect on arginine transport) ([1]; compound 0.001 μM): ↑; Percentage (arginine transport, control = 100) ([1]; compound 0.001 μM): 133.37%; Transport rate (arginine) ([1]; compound 0.001 μM): 14.2554 ± 0.5851 nmol/min; Arginine transport rate ([1]; concentration from 0.001 μM to 0.1 μM): increased; Tryptophan transport rate ([2]; concentration from 0.01 μM to 0.1 mM): increased; Folate uptake versus control group ([3]; 0.1 μM, FIG. 4): increased folate uptake; Regulatory effects on the glucose uptake of the Caco2 cells [4]: had regulatory effects on the glucose uptake; * (regulatory effect on glucose uptake) ([4]; compound 0.01 μM): ↑; Percentage (glucose uptake, control = 100) ([4]; compound 0.01 μM): 146.75%; Uptake rate (glucose) ([4]; compound 0.01 μM): 9.3510 ± 1.1370 nmol/mg/min; * (regulatory effect on glucose uptake) ([4]; compound 0.1 μM): ↑; Percentage (glucose uptake, control = 100) ([4]; compound 0.1 μM): 122.82%; Uptake rate (glucose) ([4]; compound 0.1 μM): 7.8260 ± 1.7510 nmol/mg/min; Percentage (glucose uptake, control = 100) ([4]; compound 1 μM): 98.52%; Uptake rate (glucose) ([4]; compound 1 μM): 6.2780 ± 1.9930 nmol/mg/min
